{"source": "ChEMBL document CHEMBL1137640", "about": "“In vitro antimycobacterial spectrum of a diarylquinoline ATP synthase inhibitor” (2007)", "tested_on": "Mycobacterium tuberculosis", "assay": "Antimicrobial activity against multidrug-resistant Mycobacterium tuberculosis isolate after 2 to 4 weeks by two fold dilution method", "type": "functional", "data": [{"smiles": "COc1nc2ccc(Br)cc2cc1[C@@H](c1ccccc1)[C@@](O)(CCN(C)C)c1cccc2ccccc12", "note": "[BEDAQUILINE]", "values": [{"measurement": "MIC", "result": 4, "unit": "ng/mL"}, {"measurement": "MIC50", "result": 0.03, "unit": "µg/mL"}, {"measurement": "MIC90", "result": 0.06, "unit": "µg/mL"}]}]}
